Experimental data taken from US9302991B2, “Arylamide derivatives as TTX-S blockers” (RaQualia Pharma Inc., priority 2010, dated 2016).

The compounds below were run against T1, human Nav1.7 channels (Homo sapiens, UniProt Q15858) (assay: FRET assay, human Nav1.7 (EFS on FDSS)). Details: CHO cells expressing human Nav1.7, read-out: IC50 against Nav1.7.
T1 construct: expressed in transfected cells; host or cells: CHO
Format: cell-based
Outline: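 IC50 was derived from normalized 440 nm fluorescence ratios of the EFS-evoked membrane-potential response read on FDSS. Recombinant CHO cells were sequentially dye-loaded with coumarin/oxonol FRET pair at room temperature in pH 7.4 buffer before compound addition.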

T1 sequence (Q15858 whole entry): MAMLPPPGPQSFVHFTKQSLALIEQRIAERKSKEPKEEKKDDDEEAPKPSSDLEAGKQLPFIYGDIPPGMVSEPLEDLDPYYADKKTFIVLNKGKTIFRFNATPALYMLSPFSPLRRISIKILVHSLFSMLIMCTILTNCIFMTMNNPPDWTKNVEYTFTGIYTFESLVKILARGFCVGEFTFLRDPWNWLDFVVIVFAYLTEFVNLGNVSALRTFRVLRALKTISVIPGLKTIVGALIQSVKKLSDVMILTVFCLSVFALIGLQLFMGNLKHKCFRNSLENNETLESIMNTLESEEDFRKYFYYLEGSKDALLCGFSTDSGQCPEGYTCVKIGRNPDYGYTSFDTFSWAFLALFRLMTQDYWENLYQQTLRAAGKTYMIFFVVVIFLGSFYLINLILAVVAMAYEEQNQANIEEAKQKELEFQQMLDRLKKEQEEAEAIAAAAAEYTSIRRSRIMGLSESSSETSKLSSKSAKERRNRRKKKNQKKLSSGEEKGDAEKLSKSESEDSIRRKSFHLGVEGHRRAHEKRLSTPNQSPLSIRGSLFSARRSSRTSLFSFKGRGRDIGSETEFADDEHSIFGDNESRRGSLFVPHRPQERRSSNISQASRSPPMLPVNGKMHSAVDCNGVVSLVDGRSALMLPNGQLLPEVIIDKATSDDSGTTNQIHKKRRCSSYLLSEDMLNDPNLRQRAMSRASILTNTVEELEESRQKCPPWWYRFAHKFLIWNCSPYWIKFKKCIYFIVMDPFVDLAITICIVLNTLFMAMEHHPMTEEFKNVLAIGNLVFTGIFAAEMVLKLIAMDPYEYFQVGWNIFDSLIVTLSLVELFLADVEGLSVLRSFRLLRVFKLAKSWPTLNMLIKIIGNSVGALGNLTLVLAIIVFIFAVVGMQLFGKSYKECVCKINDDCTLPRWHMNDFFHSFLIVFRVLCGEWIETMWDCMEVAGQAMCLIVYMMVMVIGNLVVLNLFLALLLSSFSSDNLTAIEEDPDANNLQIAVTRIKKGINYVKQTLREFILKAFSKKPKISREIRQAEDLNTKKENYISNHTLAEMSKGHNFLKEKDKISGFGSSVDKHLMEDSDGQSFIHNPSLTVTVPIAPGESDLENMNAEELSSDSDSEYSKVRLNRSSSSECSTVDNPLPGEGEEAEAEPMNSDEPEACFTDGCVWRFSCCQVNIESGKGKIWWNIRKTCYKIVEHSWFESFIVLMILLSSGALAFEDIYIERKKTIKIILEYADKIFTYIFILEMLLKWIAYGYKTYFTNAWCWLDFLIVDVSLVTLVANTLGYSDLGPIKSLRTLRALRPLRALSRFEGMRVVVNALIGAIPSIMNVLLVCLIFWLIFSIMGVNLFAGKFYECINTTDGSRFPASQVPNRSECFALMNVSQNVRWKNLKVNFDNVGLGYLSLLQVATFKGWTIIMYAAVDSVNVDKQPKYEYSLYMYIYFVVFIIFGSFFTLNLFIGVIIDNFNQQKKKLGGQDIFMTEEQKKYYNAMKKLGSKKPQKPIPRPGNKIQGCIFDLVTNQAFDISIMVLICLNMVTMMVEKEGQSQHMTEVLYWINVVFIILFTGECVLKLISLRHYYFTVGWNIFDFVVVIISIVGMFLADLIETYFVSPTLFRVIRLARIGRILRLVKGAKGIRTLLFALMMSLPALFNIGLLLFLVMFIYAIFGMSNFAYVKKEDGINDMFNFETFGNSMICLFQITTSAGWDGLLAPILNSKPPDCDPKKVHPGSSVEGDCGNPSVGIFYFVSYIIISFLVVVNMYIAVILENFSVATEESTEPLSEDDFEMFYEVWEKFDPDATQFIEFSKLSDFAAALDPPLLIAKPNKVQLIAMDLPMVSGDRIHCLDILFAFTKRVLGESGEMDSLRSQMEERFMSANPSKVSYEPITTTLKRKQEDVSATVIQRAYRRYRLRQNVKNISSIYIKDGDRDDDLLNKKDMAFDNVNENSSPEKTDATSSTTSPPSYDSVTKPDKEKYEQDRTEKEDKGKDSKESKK

IC50, < 1000 nM:
Cc1cc(C(=O)NC(C)c2cnc(OCC(F)F)c(C)c2)nc(NC(=O)C2CC2)n1 (single isomer, unassigned) [Example 559, 2-(cyclopropanecarboxamido)-N-(1-(6-(2,2-difluoroethoxy)-5-methylpyridin-3-yl)ethyl)6-methylpyrimidine-4-carboxamide]
CC(=O)Nc1cc(C(=O)NC(C)c2cccc(SC(F)(F)F)c2)cc(C)n1 (single isomer, unassigned) [Example 1031, 2-acetamido-6-methyl-N-(1-(3-((trifluoromethyl)thio)phenyl)ethyl)isonicotinamide]
CC(=O)Nc1cc(C(=O)NCc2ccc(OCC(F)(F)F)nc2)cc(C)n1 [Example 237, 2-acetamido-6-methyl-N-((6-(2,2,2-trifluoroethoxy)pyridin-3-yl)methyl)isonicotinamide]
Cc1cc(C(=O)NCc2ccc(OCC(F)F)c(C)c2)cc(NC(=O)C(C)C)n1 [Example 994, N-(4-(2,2-difluoroethoxy)-3-methylbenzyl)-2-isobutyramido-6-methylisonicotinamide]
CC(=O)Nc1cc(C(=O)NC(C)c2ccc(OCC(F)F)c(Cl)c2)cc(C)n1 (single isomer, unassigned) [Example 1100, 2-acetamido-N-(1-(3-chloro-4-(2,2-difluoroethoxy)phenyl)ethyl)-6-methylisonicotinamide]
CC(=O)Nc1cc(C(=O)NC(C)c2cc(C(F)(F)F)ccc2F)ccn1 (single isomer, unassigned) [Example 1096, 2-acetamido-N-(1-(2-fluoro-5-(trifluoromethyl)phenyl)ethyl)isonicotinamide]
CC(C)C(=O)Nc1cc(C(=O)NC(C)c2cccc(OC(F)(F)F)c2)ccn1 (single isomer, unassigned) [Example 418, 2-isobutyramido-N-(1-(3-(trifluoromethoxy)phenyl)ethyl)isonicotinamide]
Cc1cc(C(=O)NCc2cnc(OCC(F)(F)F)c(Cl)c2)nc(NC(=O)C(C)C)n1 [Example 385, N-((5-chloro-6-(2,2,2-trifluoroethoxy)pyridin-3-yl)methyl)-2-isobutyramido-6-methylpyrimidine-4-carboxamide]
Cc1cc(C(=O)NC(C)c2ccc(OCC(F)(F)F)cc2Cl)nc(NC(=O)C2CC2)n1 (single isomer, unassigned) [Example 803, N-(1-(2-chloro-4-(2,2,2-trifluoroethoxy)phenyl)ethyl)-2-(cyclopropanecarboxamido)-6-methylpyrimidine-4-carboxamide]
CC(=O)Nc1cc(C(=O)NCc2ccc(OCC(F)F)c(C)c2)cc(C)n1 [Example 993, 2-acetamido-N-(4-(2,2-difluoroethoxy)-3-methylbenzyl)-6-methylisonicotinamide]
COc1cc(CNC(=O)c2cc(C)nc(NC(=O)C3CC3)n2)cnc1OCC(F)(F)F [Example 442, 2-(cyclopropanecarboxamido)-N-((5-methoxy-6-(2,2,2-trifluoroethoxy)pyridin-3-yl)methyl)-6-methylpyrimidine-4-carboxamide]
CC(=O)Nc1cc(C(=O)NCc2cnc(OCC(F)(F)F)c(C)c2)ccn1 [Example 367, 2-acetamido-N-((5-methyl-6-(2,2,2-trifluoroethoxy)pyridin-3-yl)methyl)isonicotinamide]
CC(=O)Nc1cc(C(=O)N[C@H](C)c2cccc(C(F)(F)F)c2)cc(C)n1 (single isomer, unassigned) [Example 529]
CCC(=O)Nc1cc(C(=O)NCc2ccc(OCC(F)(F)F)nc2N2CCOCC2)cc(C)n1 [Example 284, 2-methyl-N-((2-morpholino-6-(2,2,2-trifluoroethoxy)pyridin-3-yl)methyl)-6-propionamidoisonicotinamide]
CCc1cc(CNC(=O)c2ccnc(NC(=O)C3CC3)n2)cnc1OCC(F)F [Example 912, 2-(cyclopropanecarboxamido)-N-((6-(2,2-difluoroethoxy)-5-ethylpyridin-3-yl)methyl)pyrimidine-4-carboxamide]
Cc1cc(C(=O)NC(C)c2ccc(OCC(F)(F)F)cc2Cl)cc(NC(=O)C(C)C)n1 (single isomer, unassigned) [Example 801, N-(1-(2-chloro-4-(2,2,2-trifluoroethoxy)phenyl)ethyl)-2-isobutyramido-6-methylisonicotinamide]
CCC(=O)Nc1cc(C(=O)NCc2ccc(OCC(F)(F)F)nc2N2CCCCC2)cc(C)n1 [Example 306, 2-methyl-N-((2-(piperidin-1-yl)-6-(2,2,2-trifluoroethoxy)pyridin-3-yl)methyl)-6-propionamidoisonicotinamide]
CCCC(=O)Nc1cc(C(=O)NCc2ccc(OCC(F)(F)F)nc2OCC)ccn1 [Example 337, 2-butyramido-N-((2-ethoxy-6-(2,2,2-trifluoroethoxy)pyridin-3-yl)methyl)isonicotinamide]
CC(=O)Nc1cc(C(=O)NCc2cccc(OC(F)(F)F)c2)ccn1 [Example 24, 2-acetamido-N-(3-(trifluoromethoxy)benzyl)isonicotinamide]
Cc1cc(C(=O)NC(C)c2cc(C(F)(F)F)ccc2F)cc(NC(=O)C(C)C)n1 (single isomer, unassigned) [Example 980, N-(1-(2-fluoro-5-(trifluoromethyl)phenyl)ethyl)-2-isobutyramido-6-methylisonicotinamide]
COc1nc(OCC(F)F)ccc1CNC(=O)c1cc(C)nc(NC(C)=O)c1 [Example 1156, 2-acetamido-N-((6-(2,2-difluoroethoxy)-2-methoxypyridin-3-yl)methyl)-6-methylisonicotinamide]
Cc1cc(C(=O)NC(C)c2cnc(OCC(F)(F)C(F)F)c(C)c2)nc(NC(=O)C2CC2)n1 (single isomer, unassigned) [Example 907, 2-(cyclopropanecarboxamido)-6-methyl-N-(1-(5-methyl-6-(2,2,3,3-tetrafluoropropoxy)pyridin-3-yl)ethyl)pyrimidine-4-carboxamide]
Cc1cc(C(=O)NC(C)c2ccc(OCC(F)(F)F)c(Cl)c2)cc(NC(=O)C(C)C)n1 (single isomer, unassigned) [Example 678, N-(1-(3-chloro-4-(2,2,2-trifluoroethoxy)phenyl)ethyl)-2-isobutyramido-6-methylisonicotinamide]
CCc1cc(C(C)NC(=O)c2cc(C)nc(NC(=O)C(C)C)c2)cnc1OCC(F)F (single isomer, unassigned) [Example 893, N-(1-(6-(2,2-difluoroethoxy)-5-ethylpyridin-3-yl)ethyl)-2-isobutyramido-6-methylisonicotinamide]
CC(C)C(=O)Nc1cc(C(=O)NC(C)c2cnc(OCC(F)(F)F)c(Cl)c2)ccn1 (single isomer, unassigned) [Example 522, N-(1-(5-chloro-6-(2,2,2-trifluoroethoxy)pyridin-3-yl)ethyl)-2-isobutyramidoisonicotinamide]
Cc1cc(C(=O)NC(C)c2ccc(OCC(F)(F)C(F)F)nc2)cc(NC(=O)C2CC2)n1 (single isomer, unassigned) [Example 828]
Cc1nc(OCC(F)(F)F)ccc1CNC(=O)c1ccnc(NC(=O)C2CC2)n1 [Example 407, 2-(cyclopropanecarboxamido)-N-((2-methyl-6-(2,2,2-trifluoroethoxy)pyridin-3-yl)methyl)pyrimidine-4-carboxamide]
CC(NC(=O)c1ccnc(NC(=O)C2CC2)c1)c1ccc(OCC(F)(F)F)c(Cl)c1 (single isomer, unassigned) [Example 675, N-(1-(3-chloro-4-(2,2,2-trifluoroethoxy)phenyl)ethyl)-2-(cyclopropanecarboxamido)isonicotinamide]
CCCC(=O)Nc1cc(C(=O)NC(C)c2cnc(OCC(F)(F)F)c(OC)c2)ccn1 (single isomer, unassigned) [Example 331, 2-butyramido-N-(1-(5-methoxy-6-(2,2,2-trifluoroethoxy)pyridin-3-yl)ethyl)isonicotinamide]
CCOc1nc(OCC(F)(F)F)ccc1CNC(=O)c1cc(C)nc(NC(C)=O)c1 [Example 336, 2-acetamido-N-((2-ethoxy-6-(2,2,2-trifluoroethoxy)pyridin-3-yl)methyl)-6-methylisonicotinamide]
CC(NC(=O)c1ccnc(NC(=O)C2CC2)c1)c1ccc(OCC(F)(F)F)cc1Cl (single isomer, unassigned) [Example 798, N-(1-(2-chloro-4-(2,2,2-trifluoroethoxy)phenyl)ethyl)-2-(cyclopropanecarboxamido)isonicotinamide]
CCOc1nc(OCC(F)(F)F)ccc1CNC(=O)c1cc(C)nc(NC(=O)CC)c1 [Example 334, N-((2-ethoxy-6-(2,2,2-trifluoroethoxy)pyridin-3-yl)methyl)-2-methyl-6-propionamidoisonicotinamide]
COc1nc(OCC(F)F)ccc1C(C)NC(=O)c1ccnc(NC(=O)C2CC2)c1 (single isomer, unassigned) [Example 1162, 2-(cyclopropanecarboxamido)-N-(1-(6-(2,2-difluoroethoxy)-2-methoxypyridin-3-yl)ethyl)isonicotinamide]
COc1cc(CNC(=O)c2cc(C)nc(NC(=O)C(C)C)c2)ccc1OCC(F)(F)F [Example 885, 2-isobutyramido-N-(3-methoxy-4-(2,2,2-trifluoroethoxy)benzyl)-6-methylisonicotinamide]
CCC(=O)Nc1cc(C(=O)NC(C)c2ccc(OCC(F)(F)F)nc2)cc(C)n1 (single isomer, unassigned) [Example 60, 2-methyl-6-propionamido-N-(1-(6-(2,2,2-trifluoroethoxy)pyridin-3-yl)ethyl)isonicotinamide]
